What was measured:
Assay in all cases: Test B pre-/postemergence
Type in all cases: in vivo
Parameters in all cases: key: 0 is no effect; 10 is complete control
[1] = tested on: velvetleaf (Abutilon theophrasti)
Outline: (§1)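 Scored visually 0 (none) to 10 (complete control) against untreated plants after twelve to sixteen greenhouse days. Test chemicals, formulated in surfactant-containing non-phytotoxic solvent, applied to soil after planting and, separately, onto 1- to 4-leaf (2–18 cm) plants.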

[2] = tested on: soybean (Glycine max)
Outline: as §1

[3] = tested on: giant foxtail (Setaria faberii)
Outline: as §1

[4] = tested on: pigweed (Amaranthus retroflexus)
Outline: as §1

[5] = tested on: crabgrass (Digitaria sanguinalis)
Outline: as §1

[6] = tested on: momingglory (Ipomoea hederacea)
Outline: as §1

[7] = tested on: wheat (Triticum aestivum)
Outline: as §1

[8] = tested on: cocklebur (Xanthium strumarium)
Outline: as §1

[9] = tested on: rape (Brassica napus)
Outline: as §1

[10] = tested on: bedstraw (Galium aparine)
Outline: as §1

[11] = tested on: corn (Zea mays)
Outline: as §1

[12] = tested on: purple nutsedge (Cyperus rotundus)
Outline: as §1

[13] = tested on: broadleaf signalgrass (Brachiaria decumbens)
Outline: as §1

[14] = tested on: sugar beet (Beta vulgaris)
Outline: as §1

## Cc1cnc(-c2ccc(C(F)(F)F)cc2)nc1Cc1cccc(C(F)(F)F)c1 [Example 1, 5-methyl-2-[4-(trifluoromethyl)phenyl]-4-[[3-(trifluoromethyl)phenyl]methyl]pyrimidine]
[1]; Rate 62 g/ha, Postemergence
  Plant response rating, Velvetleaf: 7
[1]; Rate 62 g/ha, Preemergence
  Velvetleaf plant response rating: 6
[1]; Rate 125 g/ha, Postemergence
  Plant response rating, Velvetleaf: 8
[1]; Rate 125 g/ha, Preemergence
  Velvetleaf plant response rating: 10
[1]; Rate 250 g/ha, Postemergence
  Plant response rating, Velvetleaf: 9
[1]; Rate 250 g/ha, Preemergence
  Plant response rating, Velvetleaf: 10
[1]; Rate 500 g/ha, Postemergence
  Plant response rating, Velvetleaf: 9
[1]; Rate 500 g/ha, Preemergence
  Plant response rating, Velvetleaf: 10
[2]; Rate 62 g/ha, Postemergence
  Plant response rating, Soybean: 8
[2]; Rate 62 g/ha, Preemergence
  Soybean plant response rating: 1
[2]; Rate 125 g/ha, Postemergence
  Plant response rating, Soybean: 8
[2]; Rate 125 g/ha, Preemergence
  Soybean plant response rating: 1
[2]; Rate 250 g/ha, Postemergence
  Plant response rating, Soybean: 9
[2]; Rate 250 g/ha, Preemergence
  Plant response rating, Soybean: 3
[2]; Rate 500 g/ha, Postemergence
  Plant response rating, Soybean: 9
[2]; Rate 500 g/ha, Preemergence
  Plant response rating, Soybean: 5
[3]; Rate 62 g/ha, Postemergence
  Plant response rating, Giant foxtail: 3
[3]; Rate 62 g/ha, Preemergence
  Giant foxtail plant response rating: 10
[3]; Rate 125 g/ha, Postemergence
  Plant response rating, Giant foxtail: 7
[3]; Rate 125 g/ha, Preemergence
  Giant foxtail plant response rating: 10
[3]; Rate 250 g/ha, Postemergence
  Plant response rating, Giant foxtail: 9
[3]; Rate 250 g/ha, Preemergence
  Plant response rating, Giant foxtail: 10
[3]; Rate 500 g/ha, Postemergence
  Plant response rating, Giant foxtail: 9
[3]; Rate 500 g/ha, Preemergence
  Plant response rating, Giant foxtail: 10
[4]; Rate 62 g/ha, Postemergence
  Plant response rating, Redroot pigweed: 9
[4]; Rate 62 g/ha, Preemergence
  Redroot pigweed plant response rating: 10
[4]; Rate 125 g/ha, Postemergence
  Plant response rating, Redroot pigweed: 9
[4]; Rate 125 g/ha, Preemergence
  Redroot pigweed plant response rating: 10
[4]; Rate 250 g/ha, Postemergence
  Plant response rating, Redroot pigweed: 10
[4]; Rate 250 g/ha, Preemergence
  Plant response rating, Redroot pigweed: 10
[4]; Rate 500 g/ha, Postemergence
  Plant response rating, Redroot pigweed: 10
[4]; Rate 500 g/ha, Preemergence
  Plant response rating, Redroot pigweed: 10
[5]; Rate 62 g/ha, Postemergence
  Plant response rating, Crabgrass: 4
[5]; Rate 62 g/ha, Preemergence
  Crabgrass plant response rating: 10
[5]; Rate 125 g/ha, Postemergence
  Plant response rating, Crabgrass: 9
[5]; Rate 125 g/ha, Preemergence
  Crabgrass plant response rating: 10
[5]; Rate 250 g/ha, Postemergence
  Plant response rating, Crabgrass: 9
[5]; Rate 250 g/ha, Preemergence
  Plant response rating, Crabgrass: 10
[5]; Rate 500 g/ha, Postemergence
  Plant response rating, Crabgrass: 9
[5]; Rate 500 g/ha, Preemergence
  Plant response rating, Crabgrass: 10
[6]; Rate 62 g/ha, Postemergence
  Plant response rating, Morningglory: 4
[6]; Rate 62 g/ha, Preemergence
  Morningglory plant response rating: 10
[6]; Rate 125 g/ha, Postemergence
  Plant response rating, Morningglory: 8
[6]; Rate 125 g/ha, Preemergence
  Morningglory plant response rating: 10
[6]; Rate 250 g/ha, Postemergence
  Plant response rating, Morningglory: 10
[6]; Rate 250 g/ha, Preemergence
  Plant response rating, Morningglory: 10
[6]; Rate 500 g/ha, Postemergence
  Plant response rating, Morningglory: 10
[6]; Rate 500 g/ha, Preemergence
  Plant response rating, Morningglory: 10
[7]; Rate 62 g/ha, Postemergence
  Plant response rating, Wheat: 2
[7]; Rate 62 g/ha, Preemergence
  Wheat plant response rating: 1
[7]; Rate 125 g/ha, Postemergence
  Plant response rating, Wheat: 2
[7]; Rate 125 g/ha, Preemergence
  Wheat plant response rating: 5
[7]; Rate 250 g/ha, Postemergence
  Plant response rating, Wheat: 3
[7]; Rate 250 g/ha, Preemergence
  Plant response rating, Wheat: 8
[7]; Rate 500 g/ha, Postemergence
  Plant response rating, Wheat: 5
[7]; Rate 500 g/ha, Preemergence
  Plant response rating, Wheat: 9
[8]; Rate 62 g/ha, Postemergence
  Plant response rating, Cocklebur: 7
[8]; Rate 62 g/ha, Preemergence
  Cocklebur plant response rating: 2
[8]; Rate 125 g/ha, Postemergence
  Plant response rating, Cocklebur: 8
[8]; Rate 125 g/ha, Preemergence
  Cocklebur plant response rating: 2
[8]; Rate 250 g/ha, Postemergence
  Plant response rating, Cocklebur: 9
[8]; Rate 250 g/ha, Preemergence
  Plant response rating, Cocklebur: 3
[8]; Rate 500 g/ha, Postemergence
  Plant response rating, Cocklebur: 10
[8]; Rate 500 g/ha, Preemergence
  Plant response rating, Cocklebur: 10
[9]; Rate 62 g/ha, Postemergence
  Plant response rating, Rape: 9
[9]; Rate 62 g/ha, Preemergence
  Rape plant response rating: 10
[9]; Rate 125 g/ha, Postemergence
  Plant response rating, Rape: 9
[9]; Rate 125 g/ha, Preemergence
  Rape plant response rating: 10
[9]; Rate 250 g/ha, Postemergence
  Plant response rating, Rape: 9
[9]; Rate 250 g/ha, Preemergence
  Plant response rating, Rape: 10
[9]; Rate 500 g/ha, Postemergence
  Plant response rating, Rape: 9
[9]; Rate 500 g/ha, Preemergence
  Plant response rating, Rape: 10
[10]; Rate 62 g/ha, Postemergence
  Plant response rating, Bedstraw: 9
[10]; Rate 62 g/ha, Preemergence
  Bedstraw plant response rating: 8
[10]; Rate 125 g/ha, Postemergence
  Plant response rating, Bedstraw: 9
[10]; Rate 125 g/ha, Preemergence
  Bedstraw plant response rating: 8
[10]; Rate 250 g/ha, Postemergence
  Plant response rating, Bedstraw: 9
[10]; Rate 250 g/ha, Preemergence
  Plant response rating, Bedstraw: 8
[10]; Rate 500 g/ha, Postemergence
  Plant response rating, Bedstraw: 10
[10]; Rate 500 g/ha, Preemergence
  Plant response rating, Bedstraw: 9
[11]; Rate 62 g/ha, Postemergence
  Plant response rating, Corn: 4
[11]; Rate 62 g/ha, Preemergence
  Corn plant response rating: 1
[11]; Rate 125 g/ha, Postemergence
  Plant response rating, Corn: 4
[11]; Rate 125 g/ha, Preemergence
  Corn plant response rating: 1
[11]; Rate 250 g/ha, Postemergence
  Plant response rating, Corn: 4
[11]; Rate 250 g/ha, Preemergence
  Plant response rating, Corn: 2
[11]; Rate 500 g/ha, Postemergence
  Plant response rating, Corn: 7
[11]; Rate 500 g/ha, Preemergence
  Plant response rating, Corn: 2
[12]; Rate 62 g/ha, Preemergence
  Nutsedge plant response rating: 0
[12]; Rate 125 g/ha, Preemergence
  Nutsedge plant response rating: 0
[12]; Rate 250 g/ha, Postemergence
  Plant response rating, Nutsedge: 1
[12]; Rate 500 g/ha, Postemergence
  Plant response rating, Nutsedge: 2
[12]; Rate 500 g/ha, Preemergence
  Plant response rating, Nutsedge: 1
[13]; Rate 62 g/ha, Postemergence
  Plant response rating, B. signalgrass: 3
[13]; Rate 62 g/ha, Preemergence
  B. signalgrass plant response rating: 9
[13]; Rate 125 g/ha, Postemergence
  Plant response rating, B. signalgrass: 6
[13]; Rate 125 g/ha, Preemergence
  B. signalgrass plant response rating: 9
[13]; Rate 250 g/ha, Postemergence
  Plant response rating, B. signalgrass: 8
[13]; Rate 250 g/ha, Preemergence
  Plant response rating, B. signalgrass: 9
[13]; Rate 500 g/ha, Postemergence
  Plant response rating, B. signalgrass: 9
[13]; Rate 500 g/ha, Preemergence
  Plant response rating, B. signalgrass: 9
[14]; Rate 62 g/ha, Postemergence
  Plant response rating, Sugarbeets: 10
[14]; Rate 62 g/ha, Preemergence
  Sugarbeets plant response rating: 10
[14]; Rate 125 g/ha, Postemergence
  Plant response rating, Sugarbeets: 10
[14]; Rate 125 g/ha, Preemergence
  Sugarbeets plant response rating: 10
[14]; Rate 250 g/ha, Postemergence
  Plant response rating, Sugarbeets: 10
[14]; Rate 250 g/ha, Preemergence
  Plant response rating, Sugarbeets: 10
[14]; Rate 500 g/ha, Postemergence
  Plant response rating, Sugarbeets: 10
[14]; Rate 500 g/ha, Preemergence
  Plant response rating, Sugarbeets: 10

From patent publication US6525001B1, “Substituted pyrimidine and pyridine herbicides” (Mid-American Commercialization Corporation, priority 1997, dated 2003)
